Source: ChEMBL document CHEMBL1201862, “PubChem BioAssay data set” (2004)
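Each compound was tested at five concentrations against cells in 96-well plates for 48 hours. At the GI50, growth is halved.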 Activity calls are given as the source filed them. No stated cut-off is given here; in the data, active = GI50 up to about 1.1 µM and inactive = higher.

Legend:
Experiment in all cases: growth of human tumour cells (NCI), 48 h
786-0 = test system: 786-0
A498 = test system: A498
A549 = test system: A549
ACHN = test system: ACHN
CAKI-1 = test system: CAKI-1
COLO 205 = test system: COLO 205
DLD-1 = test system: DLD-1
DMS-114 = test system: DMS-114
DMS-273 = test system: DMS-273
EKVX = test system: EKVX
HCC 2998 = test system: HCC 2998
HCT-116 = test system: HCT-116
HCT-15 = test system: HCT-15
HOP-18 = test system: HOP-18
HOP-62 = test system: HOP-62
HOP-92 = test system: HOP-92
HT-29 = test system: HT-29
IGROV-1 = test system: IGROV-1
K562 = test system: K562
KM-20L2 = test system: KM-20L2
KM12 = test system: KM12
LOX IMVI = test system: LOX IMVI
LXFL 529 = test system: LXFL 529
M14 = test system: M14
M19-MEL = test system: M19-MEL
MOLT-4 = test system: MOLT-4
Malme-3M = test system: Malme-3M
NCI-H23 = test system: NCI-H23
NCI-H460 = test system: NCI-H460
NCI-H522 = test system: NCI-H522
OVCAR-3 = test system: OVCAR-3
OVCAR-4 = test system: OVCAR-4
OVCAR-5 = test system: OVCAR-5
OVCAR-8 = test system: OVCAR-8
RPMI-8226 = test system: RPMI-8226
RXF 393 = test system: RXF 393
SF-295 = test system: SF-295
SF-539 = test system: SF-539
SK-MEL-28 = test system: SK-MEL-28
SK-MEL-2 = test system: SK-MEL-2
SK-MEL-5 = test system: SK-MEL-5
SK-OV-3 = test system: SK-OV-3
SN12C = test system: SN12C
SNB-19 = test system: SNB-19
SNB-75 = test system: SNB-75
SNB-78 = test system: SNB-78
SW-620 = test system: SW-620
TK-10 = test system: TK-10
U-251 = test system: U-251
UACC-257 = test system: UACC-257
UACC-62 = test system: UACC-62
UO-31 = test system: UO-31
XF498 = test system: XF498
HL-60 = test system: HL-60
SF-268 = test system: SF-268
CCRF-CEM = test system: CCRF-CEM
NCI-H226 = test system: NCI-H226

NC(=O)C(=Cc1ccc(CP(=O)(O)O)cc1)C(N)=O
GI50 (786-0): > 100 µM (inactive)
GI50 (A498): > 100 µM (inactive)
GI50 (A549): > 100 µM (inactive)
GI50 (ACHN): > 100 µM (inactive)
GI50 (CAKI-1): > 100 µM (inactive)
GI50 (COLO 205): > 100 µM (inactive)
GI50 (DLD-1): > 100 µM (inactive)
GI50 (DMS-114): > 100 µM (inactive)
GI50 (DMS-273): > 100 µM (inactive)
GI50 (EKVX): > 100 µM (inactive)
GI50 (HCC 2998): > 100 µM (inactive)
GI50 (HCT-116): > 100 µM (inactive)
GI50 (HCT-15): > 100 µM
GI50 (HOP-18): > 100 µM (inactive)
GI50 (HOP-62): > 100 µM (inactive)
GI50 (HOP-92): > 100 µM (inactive)
GI50 (HT-29): > 100 µM (inactive)
GI50 (IGROV-1): > 100 µM (inactive)
GI50 (K562): > 100 µM (inactive)
GI50 (KM-20L2): > 100 µM (inactive)
GI50 (KM12): > 100 µM (inactive)
GI50 (LOX IMVI): > 100 µM (inactive)
GI50 (LXFL 529): > 100 µM (inactive)
GI50 (M14): > 100 µM (inactive)
GI50 (M19-MEL): > 100 µM (inactive)
GI50 (MOLT-4): > 100 µM (inactive)
GI50 (Malme-3M): > 100 µM (inactive)
GI50 (NCI-H23): > 100 µM (inactive)
GI50 (NCI-H460): > 100 µM (inactive)
GI50 (NCI-H522): > 100 µM (inactive)
GI50 (OVCAR-3): > 100 µM (inactive)
GI50 (OVCAR-4): > 100 µM (inactive)
GI50 (OVCAR-5): > 100 µM (inactive)
GI50 (OVCAR-8): > 100 µM (inactive)
GI50 (RPMI-8226): > 100 µM (inactive)
GI50 (RXF 393): > 100 µM (inactive)
GI50 (SF-295): > 100 µM (inactive)
GI50 (SF-539): > 100 µM (inactive)
GI50 (SK-MEL-28): > 100 µM (inactive)
GI50 (SK-MEL-2): > 100 µM (inactive)
GI50 (SK-MEL-5): > 100 µM (inactive)
GI50 (SK-OV-3): > 100 µM (inactive)
GI50 (SN12C): > 100 µM (inactive)
GI50 (SNB-19): > 100 µM (inactive)
GI50 (SNB-75): > 100 µM (inactive)
GI50 (SNB-78): > 100 µM (inactive)
GI50 (SW-620): > 100 µM (inactive)
GI50 (TK-10): > 100 µM (inactive)
GI50 (U-251): > 100 µM (inactive)
GI50 (UACC-257): > 100 µM (inactive)
GI50 (UACC-62): > 100 µM (inactive)
GI50 (UO-31): > 100 µM (inactive)
GI50 (XF498): > 100 µM (inactive)

O=C1CCC(=O)C12CCc1cccc(O)c12
GI50 (786-0): > 100 µM (inactive)
GI50 (A549): > 100 µM (inactive)
GI50 (ACHN): > 100 µM (inactive)
GI50 (CAKI-1): > 100 µM (inactive)
GI50 (COLO 205): > 100 µM (inactive)
GI50 (DLD-1): > 100 µM (inactive)
GI50 (DMS-114): > 100 µM (inactive)
GI50 (DMS-273): > 100 µM (inactive)
GI50 (EKVX): > 100 µM (inactive)
GI50 (HCC 2998): > 100 µM (inactive)
GI50 (HCT-15): > 100 µM
GI50 (HL-60): > 100 µM (inactive)
GI50 (HOP-18): > 100 µM (inactive)
GI50 (HOP-62): > 100 µM (inactive)
GI50 (HOP-92): > 100 µM (inactive)
GI50 (HT-29): > 100 µM (inactive)
GI50 (IGROV-1): > 100 µM (inactive)
GI50 (K562): > 100 µM (inactive)
GI50 (KM-20L2): > 100 µM (inactive)
GI50 (LOX IMVI): > 100 µM (inactive)
GI50 (LXFL 529): > 100 µM (inactive)
GI50 (M14): > 100 µM (inactive)
GI50 (M19-MEL): > 100 µM (inactive)
GI50 (Malme-3M): > 100 µM (inactive)
GI50 (NCI-H23): > 100 µM (inactive)
GI50 (NCI-H460): > 100 µM (inactive)
GI50 (OVCAR-3): > 100 µM (inactive)
GI50 (OVCAR-4): > 100 µM (inactive)
GI50 (OVCAR-8): > 100 µM (inactive)
GI50 (RPMI-8226): > 100 µM (inactive)
GI50 (RXF 393): > 100 µM (inactive)
GI50 (SF-268): > 100 µM (inactive)
GI50 (SF-295): > 100 µM (inactive)
GI50 (SK-MEL-28): > 100 µM (inactive)
GI50 (SK-OV-3): > 100 µM (inactive)
GI50 (SN12C): > 100 µM (inactive)
GI50 (SNB-75): 39 µM (inactive)
GI50 (SNB-78): > 100 µM (inactive)
GI50 (SW-620): > 100 µM (inactive)
GI50 (TK-10): > 100 µM (inactive)
GI50 (U-251): > 100 µM (inactive)
GI50 (UACC-62): > 100 µM (inactive)
GI50 (UO-31): > 100 µM (inactive)
GI50 (XF498): > 100 µM (inactive)

CCCOC(=O)C1CCC(=O)N1C(=O)C(C)Cl (configuration not stated)
GI50 (786-0): > 100 µM (inactive)
GI50 (A498): > 100 µM (inactive)
GI50 (A549): > 100 µM (inactive)
GI50 (ACHN): > 100 µM (inactive)
GI50 (CAKI-1): > 100 µM (inactive)
GI50 (CCRF-CEM): > 100 µM (inactive)
GI50 (COLO 205): > 100 µM (inactive)
GI50 (DLD-1): > 100 µM (inactive)
GI50 (DMS-114): > 100 µM (inactive)
GI50 (DMS-273): > 100 µM (inactive)
GI50 (EKVX): > 100 µM (inactive)
GI50 (HCC 2998): > 100 µM (inactive)
GI50 (HCT-116): > 100 µM (inactive)
GI50 (HCT-15): > 100 µM
GI50 (HL-60): > 100 µM (inactive)
GI50 (HOP-18): > 100 µM (inactive)
GI50 (HOP-62): > 100 µM (inactive)
GI50 (HOP-92): > 100 µM (inactive)
GI50 (HT-29): > 100 µM (inactive)
GI50 (IGROV-1): > 100 µM (inactive)
GI50 (K562): > 100 µM (inactive)
GI50 (KM-20L2): > 100 µM (inactive)
GI50 (KM12): > 100 µM (inactive)
GI50 (LOX IMVI): > 100 µM (inactive)
GI50 (LXFL 529): > 100 µM (inactive)
GI50 (M14): > 100 µM (inactive)
GI50 (M19-MEL): > 100 µM (inactive)
GI50 (MOLT-4): > 100 µM (inactive)
GI50 (Malme-3M): > 100 µM (inactive)
GI50 (NCI-H226): > 100 µM (inactive)
GI50 (NCI-H23): > 100 µM (inactive)
GI50 (NCI-H460): > 100 µM (inactive)
GI50 (NCI-H522): > 100 µM (inactive)
GI50 (OVCAR-3): > 100 µM (inactive)
GI50 (OVCAR-4): > 100 µM (inactive)
GI50 (OVCAR-5): > 100 µM (inactive)
GI50 (OVCAR-8): > 100 µM (inactive)
GI50 (RPMI-8226): > 100 µM (inactive)
GI50 (SF-268): > 100 µM (inactive)
GI50 (SF-295): > 100 µM (inactive)
GI50 (SK-MEL-28): > 100 µM (inactive)
GI50 (SK-MEL-2): > 100 µM (inactive)
GI50 (SK-MEL-5): > 100 µM (inactive)
GI50 (SK-OV-3): > 100 µM (inactive)
GI50 (SN12C): > 100 µM (inactive)
GI50 (SNB-19): > 100 µM (inactive)
GI50 (SNB-75): > 100 µM (inactive)
GI50 (SNB-78): > 100 µM (inactive)
GI50 (SW-620): > 100 µM (inactive)
GI50 (TK-10): > 100 µM (inactive)
GI50 (U-251): > 100 µM (inactive)
GI50 (UACC-257): > 100 µM (inactive)
GI50 (UACC-62): > 100 µM (inactive)
GI50 (UO-31): > 100 µM (inactive)
GI50 (XF498): > 100 µM (inactive)
